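Abbreviation: GI50, concentration required for 50% inhibition of growth. TGI: concentration producing complete growth inhibition.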
Tests used:
Assay in all cases: growth of human tumour cells (NCI), 384-well format
[1] = system: 786-0 renal
[2] = system: A498 renal
[3] = system: A549 NSCLC
[4] = system: ACHN renal
[5] = system: BT-549 breast
[6] = system: CAKI-1 renal
[7] = system: CCRF-CEM leukemia
[8] = system: COLO 205 colon
[9] = system: EKVX NSCLC
[10] = system: HCC-2998 colon
[11] = system: HCT-116 colon
[12] = system: HCT-15 colon
[13] = system: HL-60(TB) leukemia
[14] = system: HOP-62 NSCLC
[15] = system: HOP-92 NSCLC
[16] = system: HS 578T breast
[17] = system: HT29 colon
[18] = system: IGROV1 ovarian
[19] = system: K-562 leukemia
[20] = system: KM12 colon
[21] = system: LOX IMVI melanoma
[22] = system: M14 melanoma
[23] = system: MALME-3M melanoma
[24] = system: MCF7 breast
[25] = system: MDA-MB-231 breast
[26] = system: MDA-MB-435 melanoma
[27] = system: MDA-MB-468 breast
[28] = system: MOLT-4 leukemia
[29] = system: NCI-H226 lung
[30] = system: NCI-H23 lung
[31] = system: NCI-H322M lung
[32] = system: NCI-H460 NSCLC
[33] = system: NCI-H522 lung
[34] = system: NCI/ADR-RES ovarian
[35] = system: OVCAR-3 ovarian
[36] = system: OVCAR-4 ovarian
[37] = system: OVCAR-5 ovarian
[38] = system: OVCAR-8 ovarian
[39] = system: PC-3 prostate
[40] = system: RPMI-8226 leukemia
[41] = system: RXF 393 renal
[42] = system: SF-268 CNS
[43] = system: SF-295 CNS
[44] = system: SF-539 CNS
[45] = system: SK-MEL-2 melanoma
[46] = system: SK-MEL-28 melanoma
[47] = system: SK-MEL-5 melanoma
[48] = system: SK-OV-3 ovarian
[49] = system: SN12C renal
[50] = system: SNB-19 CNS
[51] = system: SNB-75 CNS
[52] = system: SR leukemia
[53] = system: SW-620 colon
[54] = system: TK-10 renal
[55] = system: U251 glioblastoma
[56] = system: UACC-257 melanoma
[57] = system: UACC-62 melanoma
[58] = system: UO-31 renal
[59] = system: DU-145 prostate

For C=CC(=O)Nc1cccc(C)c1Nc1ncc2cc(-c3c(Cl)c(OC)cc(OC)c3Cl)ccc2n1, the GI50 [1] was 1.29 µM, the TGI [1] was 5.33 µM and the GI50 [2] was 0.614 µM. The TGI [2] was 2.03 µM, the GI50 [3] was 2.12 µM and the TGI [3] was 7.94 µM. For the same molecule, the GI50 [4] was 2.93 µM, the TGI [4] was 23.7 µM and the GI50 [5] was 0.843 µM. The TGI [5] was 2.44 µM, the GI50 [6] was 2.06 µM and the TGI [6] was 13.6 µM. The GI50 [7] was 1.34 µM, the TGI [7] was 2.65 µM and the GI50 [8] was 2.01 µM. The TGI [8] was 12.2 µM, the GI50 [9] was 1.84 µM and the TGI [9] was 4.55 µM. It also gave a GI50 [10] of 2 µM, a TGI [10] of 4.83 µM and a GI50 [11] of 1.73 µM. It also gave a TGI [11] of 3.89 µM, a GI50 [12] of 1.94 µM and a TGI [12] of 4.93 µM. It also gave a GI50 [13] of 1.1 µM, a TGI [13] of 2.38 µM and a GI50 [14] of 0.775 µM. It also gave a TGI [14] of 2.34 µM, a GI50 [15] of 2.25 µM and a TGI [15] of 6.44 µM. For the same molecule, the GI50 [16] was 1.26 µM, the TGI [16] was 3.18 µM and the GI50 [17] was 2.44 µM. It also gave a TGI [17] of 9.75 µM, a GI50 [18] of 2.76 µM and a TGI [18] of 7.89 µM. It also gave a GI50 [19] of 1.39 µM, a TGI [19] of 3.21 µM and a GI50 [20] of 1.93 µM. For the same molecule, the TGI [20] was 5.2 µM, the GI50 [21] was 1.38 µM and the TGI [21] was 2.74 µM. The GI50 [22] was 3.57 µM, the TGI [22] was 12.9 µM and the GI50 [23] was 2.53 µM. For the same molecule, the TGI [23] was 9.94 µM, the GI50 [24] was 1.37 µM and the TGI [24] was greater than 100 µM. The GI50 [25] was 1.89 µM, the TGI [25] was 5.64 µM and the GI50 [26] was 2.17 µM. It also gave a TGI [26] of 5.35 µM, a GI50 [27] of 0.207 µM and a TGI [27] of 1.6 µM. The GI50 [28] was 0.736 µM, the TGI [28] was 2.13 µM and the GI50 [29] was 1.11 µM. The TGI [29] was 6.08 µM, the GI50 [30] was 1.84 µM and the TGI [30] was 5.12 µM. It also gave a GI50 [31] of 2.63 µM, a TGI [31] of 9.02 µM and a GI50 [32] of 0.717 µM. For the same molecule, the TGI [32] was 2.09 µM, the GI50 [33] was 1.3 µM and the TGI [33] was 3.01 µM. The GI50 [34] was 2.03 µM, the TGI [34] was 4.95 µM and the GI50 [35] was 1.1 µM. The TGI [35] was 2.94 µM, the GI50 [36] was 2.78 µM and the TGI [36] was 14.3 µM. The GI50 [37] was 4.44 µM, the TGI [37] was greater than 100 µM and the GI50 [38] was 1.48 µM. The TGI [38] was 3 µM, the GI50 [39] was 1.01 µM and the TGI [39] was 2.6 µM. For the same molecule, the GI50 [40] was 0.276 µM, the TGI [40] was 1.26 µM and the GI50 [41] was 0.573 µM. It also gave a TGI [41] of 1.97 µM, a GI50 [42] of 1.55 µM and a TGI [42] of 3.81 µM. The GI50 [43] was 2.77 µM, the TGI [43] was 10.5 µM and the GI50 [44] was 0.615 µM. It also gave a TGI [44] of 1.93 µM, a GI50 [45] of 0.894 µM and a TGI [45] of 2.2 µM. For the same molecule, the GI50 [46] was 2.59 µM, the TGI [46] was 8.3 µM and the GI50 [47] was 1.46 µM. The TGI [47] was 3.38 µM, the GI50 [48] was 1.69 µM and the TGI [48] was 17 µM. It also gave a GI50 [49] of 2.33 µM, a TGI [49] of 7.56 µM and a GI50 [50] of 2 µM. It also gave a TGI [50] of 7.72 µM, a GI50 [51] of 1.12 µM and a TGI [51] of 3.8 µM. The GI50 [52] was 0.348 µM, the TGI [52] was 1.54 µM and the GI50 [53] was 2.05 µM. For the same molecule, the TGI [53] was 6.31 µM, the GI50 [54] was 1.98 µM and the TGI [54] was 5.92 µM. The GI50 [55] was 1.52 µM, the TGI [55] was 3.74 µM and the GI50 [56] was 1.18 µM. It also gave a TGI [56] of 3.35 µM, a GI50 [57] of 1.75 µM and a TGI [57] of 4.9 µM. It also gave a GI50 [58] of 2.23 µM and a TGI [58] of 6.74 µM.

Work on Cc1c(F)c(N)c2c(=O)cc(-c3ccc(NC(=O)[C@@H](N)CCCCN)c(F)c3)oc2c1F yielded a GI50 [1] of 9.12 µM, a TGI [1] of 21.3 µM and a GI50 [2] of 0.0368 µM. The TGI [2] was 0.182 µM, the GI50 [3] was 1.72 µM and the TGI [3] was 17.1 µM. The GI50 [4] was 11.2 µM, the TGI [4] was 23.3 µM and the GI50 [5] was 5.47 µM. The TGI [5] was 17.9 µM, the GI50 [6] was 1.52 µM and the TGI [6] was 19.5 µM. For the same molecule, the GI50 [7] was 1.6 µM, the TGI [7] was 3.08 µM and the GI50 [8] was 6.39 µM. The TGI [8] was 18 µM, the GI50 [59] was 12.5 µM and the TGI [59] was 25 µM. It also gave a GI50 [10] of 11.7 µM, a TGI [10] of 24 µM and a GI50 [11] of 1.01 µM. The TGI [11] was 2.57 µM, the GI50 [12] was 8.41 µM and the TGI [12] was 20.6 µM. For the same molecule, the GI50 [13] was 0.878 µM, the TGI [13] was 15.4 µM and the GI50 [14] was 9.12 µM. It also gave a TGI [14] of 21.5 µM, a GI50 [15] of 4.95 µM and a TGI [15] of 15.7 µM. It also gave a GI50 [17] of 13.2 µM, a TGI [17] of 26 µM and a GI50 [18] of 0.0154 µM. For the same molecule, the TGI [18] was 0.0561 µM, the GI50 [19] was 1.09 µM and the TGI [19] was 2.85 µM. For the same molecule, the GI50 [20] was 2.31 µM, the TGI [20] was 5.46 µM and the GI50 [21] was 10.2 µM. It also gave a TGI [21] of 21.9 µM, a GI50 [22] of 2.86 µM and a TGI [22] of 6.82 µM. It also gave a GI50 [23] of 4.61 µM, a TGI [23] of 12.1 µM and a GI50 [24] of 0.0266 µM. It also gave a TGI [24] of 0.146 µM, a GI50 [25] of 5.54 µM and a TGI [25] of 17.4 µM. It also gave a GI50 [26] of 3.27 µM, a TGI [26] of 8.1 µM and a TGI [27] of 0.0175 µM. It also gave a GI50 [28] of 1.57 µM, a TGI [28] of 2.91 µM and a GI50 [29] of 0.0195 µM. The TGI [29] was 0.128 µM, the GI50 [31] was 9.87 µM and the TGI [31] was 21.5 µM. The GI50 [32] was 0.37 µM, the TGI [32] was 2.03 µM and the GI50 [33] was 4.75 µM. For the same molecule, the TGI [33] was 18.6 µM, the GI50 [34] was 12.7 µM and the TGI [34] was 25.3 µM. For the same molecule, the GI50 [36] was 8.64 µM, the TGI [36] was 21 µM and the GI50 [37] was 0.046 µM. For the same molecule, the TGI [37] was 12 µM, the GI50 [38] was 6.35 µM and the TGI [38] was 19.5 µM. It also gave a GI50 [39] of 13.3 µM, a TGI [39] of 26.1 µM and a GI50 [40] of 0.804 µM. It also gave a TGI [40] of 3.31 µM, a GI50 [41] of 8.49 µM and a TGI [41] of 20.7 µM. It also gave a GI50 [42] of 6.37 µM, a TGI [42] of 18.9 µM and a GI50 [44] of 2.27 µM. For the same molecule, the TGI [44] was 4.54 µM, the GI50 [45] was 2.98 µM and the TGI [45] was 11.9 µM. For the same molecule, the GI50 [46] was 13.4 µM, the TGI [46] was 26.2 µM and the GI50 [47] was 0.378 µM. The TGI [47] was 12.4 µM, the GI50 [48] was 3.17 µM and the TGI [48] was 12 µM. It also gave a GI50 [49] of 10.3 µM, a TGI [49] of 22 µM and a GI50 [50] of 11.3 µM. For the same molecule, the TGI [50] was 23.4 µM, the GI50 [52] was 1.52 µM and the TGI [52] was 2.89 µM. For the same molecule, the GI50 [53] was 2.56 µM, the TGI [53] was 11.5 µM and the GI50 [54] was 0.13 µM. The TGI [54] was 12.6 µM, the GI50 [55] was 1.26 µM and the TGI [55] was 2.6 µM. The GI50 [56] was 0.285 µM, the TGI [56] was 0.884 µM and the GI50 [57] was 0.618 µM. It also gave a TGI [57] of 16 µM, a GI50 [58] of 11.1 µM and a TGI [58] of 23.1 µM.
